Target: T1, αvβ6 (Homo sapiens, UniProt P06756+P18564)
T1 construct: endogenous in cells; host or cells: HT-29 cells
Assay: αvβ6 cell adhesion inhibition test (HT-29 cells on recombinant human LAP protein)
Type: cell-based
Conditions: recombinant human LAP coating, 200 μM MnCl2, 1 hour, read-out: IC50 (rate of inhibition of cell adhesion, αvβ6)
Procedure: Test Example 2 was performed by partially modifying the method of Henderson et al. (Nat Med., 19 (12), 1617-24, 2013). In Test Example 2, the same reagents as in Test Example 1 were used unless otherwise specified.
Recombinant human LAP protein (manufactured by R&D Systems, Inc., 246-LP-025) was prepared at […] with PBS, dispensed at 100 μL/well to a 96-well plate, and left standing overnight. The plate was washed with HBSS, then subjected to blocking treatment with DMEM containing 1% BSA, and used as a coated plate in the adhesion test.
HT-29 cells cultured in McCoy's 5A medium (manufactured by Thermo Fisher Scientific, Inc., 16600) containing 10% FBS and 1% penicillin/streptomycin/amphotericin B were recovered and suspended in DMEM containing 0.1% BSA and 200 μM MnCl2 to prepare a cell suspension. A test compound was added thereto.
The cell suspension of 5×10^5 cells/mL containing the test compound was added at 100 μL/well to the coated plate and left standing for 1 hour in a 5% CO2 incubator (37° C.). One hour later, the supernatant was removed, and the plate was washed with HBSS containing 200 μM MnCl2. The cells that adhered to each well in the plate were stained with crystal violet, and the cells were lysed, followed by absorbance measurement. Inhibition without substrate coating was defined as 100% inhibition, and inhibition when DMSO was added instead of the test compound was defined as 0% inhibition. The rate of inhibition of cell adhesion by the test compound was calculated according to the following expression.
Rate of inhibition of cell adhesion (%)=[1−{(Absorbance in the case of adding the test compound)−(Absorbance without substrate coating)}/{(Absorbance in the case of adding DMS)−(Absorbance without substrate coating)}]×100
An IC50 value was calculated from the rate of inhibition of cell adhesion by the test compound. A: IC50<3 nM, B: 3 nM≤IC50<10 nM, C: 10 nM≤IC50<30 nM, D: 30 nM≤IC50<100 nM, or E: IC50≥100 nM.

T1 sequence (P06756 31-889 limits assumed): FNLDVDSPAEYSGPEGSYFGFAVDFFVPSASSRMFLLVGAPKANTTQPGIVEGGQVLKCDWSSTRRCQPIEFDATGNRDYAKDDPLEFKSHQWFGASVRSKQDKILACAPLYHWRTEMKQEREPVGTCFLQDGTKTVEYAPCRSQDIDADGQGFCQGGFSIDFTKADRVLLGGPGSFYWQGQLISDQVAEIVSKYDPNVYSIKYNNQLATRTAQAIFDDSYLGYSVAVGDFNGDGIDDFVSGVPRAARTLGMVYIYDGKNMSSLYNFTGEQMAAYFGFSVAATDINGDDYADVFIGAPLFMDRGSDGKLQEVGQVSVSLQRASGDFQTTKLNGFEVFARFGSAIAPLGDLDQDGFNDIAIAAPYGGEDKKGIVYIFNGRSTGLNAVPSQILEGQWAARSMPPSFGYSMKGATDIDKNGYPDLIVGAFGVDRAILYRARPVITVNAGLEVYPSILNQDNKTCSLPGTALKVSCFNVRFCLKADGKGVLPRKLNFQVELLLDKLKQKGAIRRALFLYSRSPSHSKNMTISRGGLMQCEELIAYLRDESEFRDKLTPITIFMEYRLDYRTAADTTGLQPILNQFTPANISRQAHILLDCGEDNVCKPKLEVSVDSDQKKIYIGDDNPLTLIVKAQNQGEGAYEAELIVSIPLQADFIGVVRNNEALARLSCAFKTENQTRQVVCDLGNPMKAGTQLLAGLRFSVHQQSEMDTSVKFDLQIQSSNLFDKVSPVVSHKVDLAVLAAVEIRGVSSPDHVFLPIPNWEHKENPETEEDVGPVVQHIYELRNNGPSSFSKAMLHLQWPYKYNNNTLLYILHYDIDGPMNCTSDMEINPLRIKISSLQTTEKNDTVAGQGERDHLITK
T1 sequence (P06756 891-1048 limits assumed): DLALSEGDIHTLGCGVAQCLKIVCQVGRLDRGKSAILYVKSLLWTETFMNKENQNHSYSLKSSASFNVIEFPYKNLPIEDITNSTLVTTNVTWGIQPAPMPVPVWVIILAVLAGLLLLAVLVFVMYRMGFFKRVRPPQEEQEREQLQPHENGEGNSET
T1 sequence (P18564 22-788): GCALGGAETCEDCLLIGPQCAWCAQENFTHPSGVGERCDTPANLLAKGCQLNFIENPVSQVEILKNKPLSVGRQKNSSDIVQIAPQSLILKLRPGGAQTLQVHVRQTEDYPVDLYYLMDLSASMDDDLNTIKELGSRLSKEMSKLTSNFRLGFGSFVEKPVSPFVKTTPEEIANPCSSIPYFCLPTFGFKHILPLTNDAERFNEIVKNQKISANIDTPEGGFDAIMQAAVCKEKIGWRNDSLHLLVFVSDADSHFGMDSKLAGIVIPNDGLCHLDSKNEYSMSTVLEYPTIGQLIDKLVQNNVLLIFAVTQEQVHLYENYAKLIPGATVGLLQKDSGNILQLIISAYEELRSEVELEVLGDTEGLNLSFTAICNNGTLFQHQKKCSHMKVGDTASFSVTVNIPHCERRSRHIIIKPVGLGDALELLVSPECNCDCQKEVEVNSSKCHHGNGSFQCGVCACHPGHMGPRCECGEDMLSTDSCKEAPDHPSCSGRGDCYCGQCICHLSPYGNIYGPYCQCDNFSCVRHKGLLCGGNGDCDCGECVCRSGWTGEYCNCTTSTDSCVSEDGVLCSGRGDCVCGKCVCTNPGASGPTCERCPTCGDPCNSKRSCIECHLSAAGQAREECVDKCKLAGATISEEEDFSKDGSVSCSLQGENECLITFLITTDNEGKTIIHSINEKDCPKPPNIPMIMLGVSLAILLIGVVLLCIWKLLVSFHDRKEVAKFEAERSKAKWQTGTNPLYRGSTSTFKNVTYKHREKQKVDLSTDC

SMILES | IC50 [nM]
O=C(O)C[C@H](NC(=O)CNC(=O)c1cc(NC2=NCC(F)CN2)c2cn[nH]c2c1)c1cc(Br)ccc1F (stereo partly drawn) [Example 23-(b), (3S)-3-(5-bromo-2-fluorophenyl)-3-(2-(4-((5-fluoro-1,4,5,6-tetrahydropyrimidin-2-yl)amino)-1H-indazole-6-carboxamido)acetamido)propanoic acid] | 3 to 10
O=C(O)C[C@H](NC(=O)CNC(=O)c1cc(NC2=NCC(F)CN2)c2cn[nH]c2c1)c1cc(OC(F)F)cc(C(F)(F)F)c1 (stereo partly drawn) [Example 24-(b), (3S)-3-(3-(difluoromethoxy)-5-(trifluoromethyl)phenyl)-3-(2-(4-((5-fluoro-1,4,5,6-tetrahydropyrimidin-2-yl)amino)-1H-indazole-6-carboxamido)acetamido)propanoic acid] | < 3
O=C(O)C[C@H](NC(=O)CNC(=O)c1cc(NC2=NCC(F)CN2)c2cn[nH]c2c1)c1cc(Cl)cc(OC(F)F)c1 (stereo partly drawn) [Example 25-(b), (3S)-3-(3-chloro-5-(difluoromethoxy)phenyl)-3-(2-(4-((5-fluoro-1,4,5,6-tetrahydropyrimidin-2-yl)amino)-1H-indazole-6-carboxamido)acetamido)propanoic acid] | < 3
O=C(O)C[C@H](NC(=O)CNC(=O)c1cc(NC2=NCC(F)CN2)c2cn[nH]c2c1)c1cc(Br)cc(OC(F)F)c1 (stereo partly drawn) [Example 26-(b), (3S)-3-(3-bromo-5-(difluoromethoxy)phenyl)-3-(2-(4-((5-fluoro-1,4,5,6-tetrahydropyrimidin-2-yl)amino)-1H-indazole-6-carboxamido)acetamido)propanoic acid] | < 3
O=C(O)C[C@H](NC(=O)CNC(=O)c1cc(NC2=NCC(F)CN2)c2cn[nH]c2c1)c1ccc(F)c(OC(F)F)c1 (stereo partly drawn) [Example 27-(b), (3S)-3-(3-(difluoromethoxy)-4-fluorophenyl)-3-(2-(4-((5-fluoro-1,4,5,6-tetrahydropyrimidin-2-yl)amino)-1H-indazole-6-carboxamido)acetamido)propanoic acid] | 3 to 10
O=C(O)C[C@H](NC(=O)CNC(=O)c1cc(NC2=NCC(F)CN2)c2cn[nH]c2c1)c1cc(OC(F)F)ccc1F (stereo partly drawn) [Example 28-(b), (3S)-3-(5-(difluoromethoxy)-2-fluorophenyl)-3-(2-(4-((5-fluoro-1,4,5,6-tetrahydropyrimidin-2-yl)amino)-1H-indazole-6-carboxamido)acetamido)propanoic acid] | < 3
O=C(O)C[C@H](NC(=O)CNC(=O)c1cc(NC2=NCC(F)CN2)c2cn[nH]c2c1)c1cc(OC(F)F)cc(-n2cccn2)c1 (stereo partly drawn) [Example 29-(b), (3S)-3-(3-(difluoromethoxy)-5-(1H-pyrazol-1-yl)phenyl)-3-(2-(4-((5-fluoro-1,4,5,6-tetrahydropyrimidin-2-yl)amino)-1H-indazole-6-carboxamido)acetamido)propanoic acid] | < 3
O=C(O)C[C@H](NC(=O)CNC(=O)c1cc(NC2=NCC(F)CN2)c2cn[nH]c2c1)c1cc(OC(F)F)cc(OC(F)F)c1 (stereo partly drawn) [Example 30-(b), (3S)-3-(3,5-bis(difluoromethoxy)phenyl)-3-(2-(4-((5-fluoro-1,4,5,6-tetrahydropyrimidin-2-yl)amino)-1H-indazole-6-carboxamido)acetamido)propanoic acid] | < 3
O=C(O)C[C@H](NC(=O)CNC(=O)c1cc(NC2=NCC(F)CN2)c2cn[nH]c2c1)c1cc(Cl)cc(OC(F)(F)F)c1 (stereo partly drawn) [Example 31-(b), (3S)-3-(3-chloro-5-(trifluoromethoxy)phenyl)-3-(2-(4-((5-fluoro-1,4,5,6-tetrahydropyrimidin-2-yl)amino)-1H-indazole-6-carboxamido)acetamido)propanoic acid] | < 3
O=C(O)C[C@H](NC(=O)CNC(=O)c1cc(NC2=NCC(F)CN2)c2cn[nH]c2c1)c1cc(Br)cc(OC(F)(F)F)c1 (stereo partly drawn) [Example 32-(b), (3S)-3-(3-bromo-5-(trifluoromethoxy)phenyl)-3-(2-(4-((5-fluoro-1,4,5,6-tetrahydropyrimidin-2-yl)amino)-1H-indazole-6-carboxamido)acetamido)propanoic acid] | < 3
O=C(O)C[C@H](NC(=O)CNC(=O)c1cc(NC2=NCC(F)CN2)c2cn[nH]c2c1)c1cc(OC(F)(F)F)ccc1F (stereo partly drawn) [Example 33-(b), (3S)-3-(2-(4-((5-fluoro-1,4,5,6-tetrahydropyrimidin-2-yl)amino)-1H-indazole-6-carboxamido)acetamido)-3-(2-fluoro-5-(trifluoromethoxy)phenyl)propanoic acid] | < 3
O=C(O)C[C@H](NC(=O)CNC(=O)c1cc(NC2=NCC(F)CN2)c2cn[nH]c2c1)c1ccc(F)c(OC(F)(F)F)c1 (stereo partly drawn) [Example 34-(b), (3S)-3-(2-(4-((5-fluoro-1,4,5,6-tetrahydropyrimidin-2-yl)amino)-1H-indazole-6-carboxamido)acetamido)-3-(4-fluoro-3-(trifluoromethoxy)phenyl)propanoic acid] | < 3
O=C(O)C[C@H](NC(=O)CNC(=O)c1cc(NC2=NCC(F)CN2)c2cn[nH]c2c1)c1cccc(C(F)(F)F)c1 (stereo partly drawn) [Example 35-(b), (3S)-3-(2-(4-((5-fluoro-1,4,5,6-tetrahydropyrimidin-2-yl)amino)-1H-indazole-6-carboxamido)acetamido)-3-(3-(trifluoromethyl)phenyl)propanoic acid] | < 3
O=C(O)C[C@H](NC(=O)CNC(=O)c1cc(NC2=NCC(F)CN2)c2cn[nH]c2c1)c1cccc(OC(F)(F)F)c1 (stereo partly drawn) [Example 36-(b), (3S)-3-(2-(4-((5-fluoro-1,4,5,6-tetrahydropyrimidin-2-yl)amino)-1H-indazole-6-carboxamido)acetamido)-3-(3-(trifluoromethoxy)phenyl)propanoic acid] | < 3
O=C(O)C[C@H](NC(=O)CNC(=O)c1cc(NC2=NCC(F)CN2)c2cn[nH]c2c1)c1cccc(OC(F)F)c1 (stereo partly drawn) [Example 37-(b), (3S)-3-(3-(difluoromethoxy)phenyl)-3-(2-(4-((5-fluoro-1,4,5,6-tetrahydropyrimidin-2-yl)amino)-1H-indazole-6-carboxamido)acetamido)propanoic acid] | < 3
O=C(O)C[C@H](NC(=O)CNC(=O)c1cc(NC2=NCC(F)CN2)c2cn[nH]c2c1)c1cccc(C(F)F)c1 (stereo partly drawn) [Example 38-(b), (3S)-3-(3-(difluoromethyl)phenyl)-3-(2-(4-((5-fluoro-1,4,5,6-tetrahydropyrimidin-2-yl)amino)-1H-indazole-6-carboxamido)acetamido)propanoic acid] | < 3
O=C(O)C[C@H](NC(=O)CNC(=O)c1cc(NC2=NCC(F)CN2)c2cn[nH]c2c1)c1cccc(C2CC2)c1 (stereo partly drawn) [Example 39-(b), (3S)-3-(3-cyclopropylphenyl)-3-(2-(4-((5-fluoro-1,4,5,6-tetrahydropyrimidin-2-yl)amino)-1H-indazole-6-carboxamido)acetamido)propanoic acid] | < 3
O=C(O)C[C@H](NC(=O)CNC(=O)c1cc(NC2=NCC(F)CN2)c2cn[nH]c2c1)c1cccc(OC2CC2)c1 (stereo partly drawn) [Example 40-(b), (3S)-3-(3-cyclopropoxyphenyl)-3-(2-(4-((5-fluoro-1,4,5,6-tetrahydropyrimidin-2-yl)amino)-1H-indazole-6-carboxamido)acetamido)propanoic acid] | < 3

From US20230192661A1, “1, 4, 5, 6-TETRAHYDROPYRIMIDINE-2-AMINE DERIVATIVE” (UBE Corporation, priority 2020, published 2023)
